The text below walks through data of publication PMC4686662 (Nature Communications, 2015).

The test system of one assay is S. aureus. Nature of the assay: MIC, broth microdilution, S. aureus strains. Format: cell-based. To be noted: Staphylococcus aureus. The protocol: (§1) Antibacterial minimum inhibitory concentrations (MICs) were determined from two independent experiments using broth microdilution methods according to Clinical and Laboratory Standards Institute guidelines. […] Bacterial strains used were from GSK's culture collection.
The quinolone resistance-determining region (QRDR) or full-length of gyrA/B and parC/E were amplified by PCR from the resistant mutants and DNA sequenced using the following primer pairs (all 5′–3′ sequence): for S. aureus gyrA: […] and […]; gyrB […] and […]; parC […] and […], and parE […] and […], respectively. For S. pneumoniae gyrA: […] and […]; gyrB: […] and […]; parC: […] and […], and parE: […] and […], respectively. […] Mutations in etoposide-resistant transformants were confirmed by PCR and DNA analysis.
Background: Broth dilution looks for growth in wells or tubes with falling amounts of substance.

In another assay the target is T1, S. aureus DNA gyrase (Staphylococcus aureus, UniProt P0A0K8+P20831).
T1 construct: Full-length S. aureus GyrA and GyrB were expressed in E. coli and purified as described; made in house; host or cells: E. coli
Nature of the assay: biochemical. Format: biochemical. The protocol: (§2) BlueJuice gel loading buffer (Invitrogen) was added. […] See Supplementary Fig. 15 for representative gels.

Assay [1] has as its target T2, Human Top2α (Homo sapiens, UniProt P11388). Nature of the assay: DNA cleavage assay with human Top2α. The protocol:
as §2

Assay [2] deals with T2, Human Top2α. Nature of the assay: Human Top2α relaxation inhibition assay. Format: biochemical.
For another assay, the system named is E. coli. As to the kind of experiment: MIC, broth microdilution, E. coli strains. Format: cell-based, Escherichia coli. How it is done: as §1
The test system of another assay is Haemophilus influenzae. Nature of the assay: MIC, broth microdilution, H. influenzae strains. Format: cell-based. On the set-up: unit not given here. The protocol:
as §1

The test system of the next assay is Klebsiella pneumoniae. As to the kind of experiment: MIC, broth microdilution, K. pneumoniae strains. The format is cell-based. On the set-up: unit not given here. The following applies: Klebsiella pneumoniae 1161486 tolC. How it is done: as §1
For another assay, the system named is Acinetobacter baumannii. As to the kind of experiment: MIC, broth microdilution, A. baumannii strains. The format is cell-based. On the set-up: unit not given here. The following applies: A. baumannii ACM1015 adeABC adeIJK (footnote c). The protocol:
as §1

Assay [3] has as its target T3, E. coli DNA gyrase (Escherichia coli, UniProt P0AES4+P0AES6). To be noted: concentrations showing similar intensities of DSB.
The target in the next assay is T4, E. coli Topo IV (Escherichia coli, UniProt P0AFI2+P20083).
T4 construct: purchased Inspiralis
The following applies: read-out: IC50, E. coli Topo IV decatanation; supplementary ref 3; cited from earlier work.

Assay [4] concerns the target T3, E. coli DNA gyrase. Nature of the assay: E. coli DNA gyrase supercoiling inhibition assay. On the set-up: E. coli full-length DNA gyrase subunits A and B (both N-terminally 6-His-tagged) produced in-house; 6-His (N); made in house. The format is biochemical. The protocol: In vitro topoisomerase activity assays were performed as described with minor modifications. […] For E. coli DNA gyrase supercoiling assays, 3.4 nM of wild-type E. coli DNA gyrase (Inspiralis) was incubated with 500 ng relaxed pBR322 plasmid DNA in a 30-μl reaction containing the same buffer mixture but without the potassium glutamate. For S. aureus topo IV decatenation assays, 4 nM of S. aureus topo IV was incubated with 200 ng kinetoplast DNA in buffer as described by the manufacturer (Inspiralis). In E. coli topo IV decatenation assay, 0.125 nM of E. coli topo IV was incubated with kDNA as described in the protocol (Inspiralis). Human Top2α relaxation assays were performed as reported using 2 nM of enzyme. […] Reactions were analysed by electrophoresis in 1% w/v agarose gels followed by ethidium bromide staining. IC50 values, defined as the amount of compound that causes half-maximal inhibition, were determined by quantifying the DNA products using densitometry (VisionWorks, UVP) and fitting the data by nonlinear regression with GraFit software (Erythacus). Compound IC50 values reported are the averages of two to three determinations.

The next assay relates to human Top2β. On the set-up: method as in PMID 26149691. The following applies: cited from earlier work.
Where [5] appears, read: S. aureus RN4220 (parent), read-out: MIC.
The mark [6] stands for this setting: S. aureus RN4220 GyrB ΔT403-K406, read-out: MIC.

SMILES strings stand for the structures. Converted amounts (≈) assume the structure as drawn. Read-outs that look alike come from different tables or passages of the source.

Regarding `COc1cccc2c1C(=O)c1c(O)c3c(c(O)c1C2=O)C[C@@](O)(C(C)=O)C[C@@H]3O[C@H]1C[C@H](N)[C@H](O)[C@H](C)O1` [Daunorubicin, daunorubicin], the MIC with S. aureus (setting [5]) turned out to be 8 µg/mL (≈ 15.2 µM); with S. aureus (S. aureus RN4220 GyrB D437A), 8 µg/mL (≈ 15.2 µM); against S. aureus (S. aureus RN4220 GyrB D437N), 8 µg/mL (≈ 15.2 µM); against S. aureus (S. aureus RN4220 GyrB D437V) it was 8 µg/mL (≈ 15.2 µM); in the assay on S. aureus (S. aureus RN4220 GyrB P456L), 4 µg/mL (≈ 7.58 µM); in the assay with S. aureus (setting [6]), 1.5 µg/mL (≈ 2.84 µM).
With `COc1cc([C@@H]2c3cc4c(cc3[C@@H](O[C@@H]3O[C@@H]5CO[C@@H](c6cccs6)O[C@H]5[C@H](O)[C@H]3O)[C@H]3COC(=O)[C@H]23)OCO4)cc(OC)c1O` [Teniposide, teniposide], the MIC worked out at 16 µg/mL (≈ 24.4 µM) in the assay with S. aureus (setting [5]); 32 µg/mL (≈ 48.7 µM) in the assay on S. aureus (S. aureus RN4220 GyrB D437A); 32 µg/mL (≈ 48.7 µM) in the assay on S. aureus (S. aureus RN4220 GyrB D437N); 64 µg/mL (≈ 97.5 µM) with S. aureus (S. aureus RN4220 GyrB D437V); 32 µg/mL (≈ 48.7 µM) in the assay with S. aureus (S. aureus RN4220 GyrB P456L); 32 µg/mL (≈ 48.7 µM) with S. aureus (setting [6]).
As usually defined, the EC50 is the concentration that produces a half-maximal response. For orientation: IC50 means the concentration that gives 50% inhibition. As to `C[C@@H]1CN2c3ccc([N+](=O)[O-])cc3CC3(C(=O)NC(=O)NC3=O)[C@H]2[C@H](C)O1` [QPT-1, quinoline pyrimidine trione-1], the EC50 on S. aureus DNA gyrase is 8.8 µM; at Human Top2α [1], greater than 800 µM. Also, the “Type of DNA breaks stabilized with S. aureus DNA gyrase” value on S. aureus DNA gyrase (each compound 100 μM, supercoiled pBR322, full-length S. aureus gyrase) is given as “DSB”. Besides, the “Activity against human Top2α” value at Human Top2α [1] is “does not have detectable activity”. Also, the IC50 at Human Top2α [2] is greater than 500 µM; at E. coli Topo IV, 30 µM; against E. coli DNA gyrase [4], 0.65 µM. Besides, the MIC in the assay with S. aureus (setting [5]) stood at 0.5 µg/mL (≈ 1.34 µM); with S. aureus (S. aureus RN4220 GyrB D437A), 2 µg/mL (≈ 5.34 µM); in the assay with S. aureus (S. aureus RN4220 GyrB D437N) it was 4 µg/mL (≈ 10.7 µM); in the assay with E. coli (Escherichia coli 7623 tolC), 0.063 µg/mL (≈ 0.168 µM); with E. coli (Escherichia coli, E. coli 7623, read-out: MIC), 8 µg/mL (≈ 21.4 µM); against E. coli (Escherichia coli, E. coli 7623 ΔtolC), 0.063 µg/mL (≈ 0.168 µM). Also, the MIC against Haemophilus influenzae (Haemophilus influenzae H128) is reported as no more than 0.125; in the assay on Haemophilus influenzae (Haemophilus influenzae H128 acrB), no more than 0.125; against Klebsiella pneumoniae, 0.125; with Acinetobacter baumannii it was 0.125. Besides, on E. coli DNA gyrase [3], the “DNA cleavage activity relative to the (+) enantiomer (more active)” value is listed as ~ 30 fold.
As to `C[C@@H]1CN2c3c(cc4c(N5C(=O)OC[C@@H]5C)noc4c3F)CC3(C(=O)NC(=O)NC3=O)[C@H]2[C@H](C)O1` [AZD9014], the “Activity against human Top2β” value in the assay with human Top2β is “low activity”.
For the compound `COc1cccc2c1C(=O)c1c(O)c3c(c(O)c1C2=O)C[C@@](O)(C(=O)CO)C[C@@H]3O[C@H]1C[C@H](N)[C@H](O)[C@H](C)O1` [Doxorubicin, doxorubicin], the MIC in the assay on S. aureus (setting [5]) is 8 µg/mL (≈ 14.7 µM); in the assay with S. aureus (S. aureus RN4220 GyrB D437A), 8 µg/mL (≈ 14.7 µM); against S. aureus (S. aureus RN4220 GyrB D437N), 8 µg/mL (≈ 14.7 µM); against S. aureus (S. aureus RN4220 GyrB D437V), 8 µg/mL (≈ 14.7 µM); against S. aureus (S. aureus RN4220 GyrB P456L), 4 µg/mL (≈ 7.36 µM); with S. aureus (setting [6]), 3 µg/mL (≈ 5.52 µM).
`Cc1c2ccncc2c(C)c2c1[nH]c1ccccc12` [Ellipticine, ellipticine]: the MIC with S. aureus (setting [5]), in the assay with S. aureus (S. aureus RN4220 GyrB D437A), against S. aureus (S. aureus RN4220 GyrB D437N), against S. aureus (S. aureus RN4220 GyrB D437V), in the assay with S. aureus (S. aureus RN4220 GyrB P456L) and with S. aureus (setting [6]) was 1 µg/mL (≈ 4.06 µM) in each case.
